In patent publication US11071730B2, “Substituted 6-azabenzimidazole compounds” (Gilead Sciences, Inc., priority 2018, dated 2021):

Molecular target: human HPK1 (MAP4K1) (Homo sapiens (Human), UniProt Q92918)
Assay: HPK1 IC50 Assay (TR-FRET biochemical kinase assay, STK S1 peptide substrate)
Settings: recombinant human HPK1 kinase domain 0.15 nM, 10 μM ATP, 1 μM STK S1 peptide; geometric mean
In short: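 Pre-activated recombinant kinase domain (insect cells; 0.15 nM) pre-incubated with compounds for 15 min, then 10 μM ATP and 1 μM STK S1 peptide added for 3 h at 25 °C in BES pH 7.0. Phosphorylation read by HTRF (665/620 nm). IC50 from four-parameter fits normalized to staurosporine/DMSO controls, geometric mean of repeats.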

Sequence of human HPK1 (MAP4K1) (Q92918 17-274): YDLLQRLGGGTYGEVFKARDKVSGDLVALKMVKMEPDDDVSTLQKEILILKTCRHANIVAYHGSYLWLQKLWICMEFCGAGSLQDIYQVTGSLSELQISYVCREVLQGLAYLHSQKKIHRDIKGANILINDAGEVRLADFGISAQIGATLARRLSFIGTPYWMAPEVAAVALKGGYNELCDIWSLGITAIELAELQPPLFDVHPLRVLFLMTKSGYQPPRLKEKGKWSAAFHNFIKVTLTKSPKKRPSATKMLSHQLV

IC50 [nM]	SMILES
0.4	CC[C@H](O)C(=O)N1CCC2(CC1)C(=O)N([C@H]1C[C@@H](N3CCC(C)(C)C3)C1)c1cc(-c3cc4ncn(C(C)C)c4c(Nc4ccncc4F)n3)ccc12 [Example 116]
0.2	CC(C)n1cnc2cc(-c3ccc4c(c3)N([C@H]3C[C@@H](N5C[C@H]6CC[C@H]6C5)C3)C(=O)C43CCN(C(=O)C4(C)COC4)CC3)nc(Nc3ccncc3F)c21 [Example 110]
0.1	CC(=O)N1CCC2(CC1)C(=O)N([C@H]1C[C@@H](N3CC4CCC(C4)C3)C1)c1cc(-c3cc4ncn(C(C)C)c4c(Nc4cc(C)ncc4F)n3)ccc12 [Example 166]
0.6	CC(C)n1cnc2cc(-c3ccc4c(c3)N([C@H]3C[C@@H](N5CCC(C)(C)C5)C3)C(=O)C4(C)C)nc(Nc3ccncc3F)c21 [Example 189]
4.5	COC(C)(C)CN(C)[C@H]1C[C@@H](N2C(=O)C3(CCN(C(C)=O)CC3)c3ccc(-c4cc5ncn(C(C)C)c5c(Nc5ccncc5F)n4)cc32)C1 [Example 179]
0.2	CC(C)n1cnc2cc(-c3ccc4c(c3)N([C@H]3C[C@@H](N5CCCCC5)C3)C(=O)C43CCN(C(=O)C(C)(C)CO)CC3)nc(Nc3ccnc(F)c3F)c21 [Example 103]
0.2	CO[C@H]1C[C@@H](C(=O)N2CCC3(CC2)C(=O)N([C@H]2C[C@@H](N4CCC(C)(C)C4)C2)c2cc(-c4cc5ncn(C(C)C)c5c(Nc5ccncc5F)n4)ccc23)C1 [Example 156]
0.08	CC(C)n1cnc2cc(-c3ccc4c(c3)N([C@H]3C[C@@H](N5CCCCC5)C3)C(=O)C43CCN(C(=O)C4(C(C)C)COC4)CC3)nc(Nc3ccncc3F)c21 [Example 137]
0.8	CC(=O)N1CCC2(CC1)C(=O)N([C@H]1C[C@@H](N3CCC4(CC4)C3)C1)c1cc(-c3cc4ncn(C(C)C)c4c(Nc4ccncc4F)n3)ccc12 [Example 178]
0.07	CC(C)n1cnc2cc(-c3ccc4c(c3)N([C@H]3C[C@@H](N5CC6CCC(C6)C5)C3)C(=O)C43CCN(C(=O)C(C)(C)CO)CC3)nc(Nc3ccncc3F)c21 [Example 127]
0.5	CC(C)n1cnc2cc(-c3ccc4c(c3)N([C@H]3C[C@@H](N5CCC(C)(C)C5)C3)C(=O)C43CCN(C(=O)[C@@H](C)O)CC3)nc(Nc3ccncc3F)c21 [Example 120]
0.4	CC(C)n1cnc2cc(-c3ccc4c(c3)N([C@H]3C[C@@H](N5CCC(C)(C)C5)C3)C(=O)C43CCN(C(=O)c4cnco4)CC3)nc(Nc3ccncc3F)c21 [Example 158]
0.3	CCn1cnc2cc(-c3ccc4c(c3)N([C@H]3C[C@@H](N5CCCCC5)C3)C(=O)C43CCN(C(=O)C45CC(F)(C4)C5)CC3)nc(Nc3ccncc3F)c21 [Example 151]
0.5	CO[C@@H](C)C(=O)N1CCC2(CC1)C(=O)N([C@H]1C[C@@H](N3CCCCC3)C1)c1cc(-c3cc4ncn(C(C)C)c4c(Nc4ccncc4F)n3)ccc12 [Example 152]
0.5	CC(C)n1cnc2cc(-c3ccc4c(c3)N([C@H]3C[C@@H](N5CCCCC5)C3)C(=O)C43CCN(C(=O)C4(F)CCC4)CC3)nc(Nc3ccncc3F)c21 [Example 149]
1.3	CCn1cnc2cc(-c3ccc4c(c3)N([C@H]3C[C@@H](N5CCCCC5)C3)C(=O)C43CCN(C(=O)C(C)C)CC3)nc(Nc3ccncc3F)c21 [Example 148]
0.6	Cc1cc(Nc2nc(-c3ccc4c(c3)N([C@H]3C[C@@H](N5CCCCC5)C3)C(=O)C43CCN(C(=O)C4(C)COC4)CC3)cc3ncn(C(C)C)c23)c(F)cn1 [Example 129]
0.2	CC(=O)N1CCC2(CC1)C(=O)N([C@H]1C[C@@H](N3CC4CC4(C)C3)C1)c1cc(-c3cc4ncn(C(C)C)c4c(Nc4ccncc4F)n3)ccc12 (some centres unmarked) [Example 187]
0.8	Cc1cc(Nc2nc(-c3ccc4c(c3)N([C@H]3C[C@@H](N5CCCCC5)C3)C(=O)C43CCN(C(=O)C(C)(C)CO)CC3)cc3ncn(C(C)C)c23)c(F)cn1 [Example 132]
0.5	CO[C@H]1C[C@@H](C(=O)N2CCC3(CC2)C(=O)N([C@H]2C[C@@H](N4CCCCC4)C2)c2cc(-c4cc5ncn(C(C)C)c5c(Nc5ccncc5F)n4)ccc23)C1 [Example 136, 6-(4-((3-fluoropyridin-4-yl)amino)-3-isopropyl-3H-imidazo[4,5-c]pyridin-6-yl)-1′-((1s,3 S)-3-methoxycyclobutane-1-carbonyl)-1-((1s,3 S)-3-(piperidin-1-yl)cyclobutyl)spiro[indoline-3,4′-piperidin]-2-one]
1	CC(=O)N1CCC2(CC1)C(=O)N([C@H]1C[C@@H](N3CCCCC3)C1)c1cc(-c3cc4ncn(C(C)C)c4c(Nc4cc(CO)ncc4F)n3)ccc12 [Example 98]

SMILES	IC50 [nM]
CC(C)n1cnc2cc(-c3ccc4c(c3)N([C@H]3C[C@@H](N5CCCCC5)C3)C(=O)C43CCN(C4COC4)CC3)nc(Nc3ccncc3F)c21 [Example 174, 6-(4-((3-fluoropyridin-4-yl)amino)-3-isopropyl-3H-imidazo[4,5-c]pyridin-6-yl)-1′-(oxetan-3-yl)-1-((1s,3s)-3-(piperidin-1-yl)cyclobutyl)spiro[indoline-3,4′-piperidin]-2-one]	0.5

Same assay, conditions: recombinant human HPK1 kinase domain 0.15 nM, 10 μM ATP, 1 μM STK S1 peptide; geometric mean of multiple experiments

IC50 [nM]	SMILES
0.2	COc1cc(F)c(Nc2nc(-c3ccc4c(c3)N([C@H]3C[C@@H](N5CCCCC5)C3)C(=O)C43CCN(C(C)=O)CC3)cc3ncn(C(C)C)c23)cn1 [Example 97]
0.2	CCn1cnc2cc(-c3ccc4c(c3)N([C@H]3C[C@@H](N5CCCCC5)C3)C(=O)C43CCN(C(=O)[C@@H](C)O)CC3)nc(Nc3ccc(F)nc3F)c21 [Example 73]
0.6	CC(C)n1cnc2cc(-c3ccc4c(c3)N([C@H]3C[C@@H](N5CCCCC5)C3)C(=O)C43CCN(C(=O)C(C)(C)O)CC3)nc(Nc3ccncc3F)c21 [Example 3]
0.7	CC[C@H](C)n1cnc2cc(-c3ccc4c(c3)N([C@H]3C[C@@H](N5CCCCC5)C3)C(=O)C43CCN(C(C)=O)CC3)nc(Nc3ccncc3F)c21 [Example 72]
6.6	CC(=O)N1CCC2(CC1)C(=O)N([C@H]1C[C@@H](N3CCCCC3)C1)c1cc(-c3cc4ncn(C(C)C)c4c(Nc4cc(C(=O)NC(C)C)ncc4F)n3)ccc12 [Example 74]
1.6	CC(C)n1cnc2cc(-c3ccc4c(c3)N([C@H]3C[C@@H](NCC(C)(C)O)C3)C(=O)C4(C)C)nc(Nc3ccncc3F)c21 [Example 52, 6-(4-((3-fluoropyridin-4-yl)amino)-3-isopropyl-3H-imidazo[4,5-c]pyridin-6-yl)-1-((1s,3s)-3-((2-hydroxy-2-methylpropyl)amino)cyclobutyl)-3,3-dimethylindolin-2-one]
0.3	CC(C)n1cnc2cc(-c3ccc4c(c3)N([C@H]3C[C@@H](N5CCCCC5)C3)C(=O)C43CCN(C(=O)C4CCO4)CC3)nc(Nc3ccncc3F)c21 (some centres unmarked) [Example 22]
0.2	CC(C)n1cnc2cc(-c3ccc4c(c3)N([C@H]3C[C@@H](N5CCC(C)(C)C5)C3)C(=O)C43CCOCC3)nc(Nc3ccncc3F)c21 [Example 71]
0.7	CC(C)n1cnc2cc(-c3ccc4c(c3)N([C@H]3C[C@@H](N5CC6CCC5CC6)C3)C(=O)C4(C)C)nc(Nc3ccncc3F)c21 [Example 58]
0.05	CC(C)n1cnc2cc(-c3ccc4c(c3)N([C@H]3C[C@@H](N5CCC(C)(C)C5)C3)C(=O)C43CCN(C(=O)[C@@H]4CC[C@H](C)O4)CC3)nc(Nc3ccncc3F)c21 [Example 20B, 1-((1s,3R)-3-(3,3-dimethylpyrrolidin-1-yl)cyclobutyl)-6-(4-((3-fluoropyridin-4-yl)amino)-3-isopropyl-3H-imidazo[4,5-c]pyridin-6-yl)-1′-((2S,5 S)-5-methyltetrahydrofuran-2-carbonyl)spiro[indoline-3,4′-piperidin]-2-one]
0.8	CC(C)n1cnc2cc(-c3ccc4c(c3)N([C@H]3C[C@@H](N5CCC6(CC6)C5)C3)C(=O)C4(C)C)nc(Nc3ccncc3F)c21 [Example 56]
0.1	CC(C)n1cnc2cc(-c3ccc4c(c3)N([C@H]3C[C@@H](N5CCC(C)(C)C5)C3)C(=O)C43CCN(C(=O)[C@H]4CC[C@@H](C)O4)CC3)nc(Nc3ccncc3F)c21 [Example 20A, 1-((1s,3S)-3-(3,3-dimethylpyrrolidin-1-yl)cyclobutyl)-6-(4-((3-fluoropyridin-4-yl)amino)-3-isopropyl-3H-imidazo[4,5-c]pyridin-6-yl)-1′-((2R,5R)-5-methyltetrahydrofuran-2-carbonyl)spiro[indoline-3,4′-piperidin]-2-one]
0.5	CC(C)n1cnc2cc(-c3ccc4c(c3)N([C@H]3C[C@@H](N5CCC6(CC6)C5)C3)C(=O)C43CCN(C(=O)C4(C)COC4)CC3)nc(Nc3ccncc3F)c21 [Example 5]
2.5	CCn1cnc2cc(-c3ccc4c(c3)N([C@H]3C[C@@H](N5CC(C)(C)C5)C3)C(=O)C4(C)C)nc(Nc3ccncc3F)c21 [Example 85]
8.2	CNC(=O)c1cc(Nc2nc(-c3ccc4c(c3)N([C@H]3C[C@@H](N5CCCCC5)C3)C(=O)C4(C)C)cc3ncn(C(C)C)c23)c(F)cn1 [Example 88]

SMILES	IC50 [nM]
CC(C)n1cnc2cc(-c3ccc4c(c3)N([C@H]3C[C@@H](N5CC[C@](C)(F)C5)C3)C(=O)C43CCN(C4COC4)CC3)nc(Nc3ccncc3F)c21 [Example 86]	0.6
CC(C)n1cnc2cc(-c3ccc4c(c3)N([C@H]3C[C@@H](N5CCC[C@@H](C)C5)C3)C(=O)C43CCN(C4COC4)CC3)nc(Nc3ccncc3F)c21 [Example 41]	0.6
CC(C)n1cnc2cc(-c3ccc4c(c3)N([C@H]3C[C@@H](N5CC(O)C(C)(C)C5)C3)C(=O)C43CCN(C4COC4)CC3)nc(Nc3ccncc3F)c21 (some centres unmarked) [Example 37, 6-(4-((3-fluoropyridin-4-yl)amino)-3-isopropyl-3H-imidazo[4,5-c]pyridin-6-yl)-1-((1s,3s)-3-(4-hydroxy-3,3-dimethylpyrrolidin-1-yl)cyclobutyl)-1′-(oxetan-3-yl)spiro[indoline-3,4′-piperidin]-2-one]	0.2
CC(C)n1cnc2cc(-c3ccc4c(c3)N([C@H]3C[C@@H](N5CC(F)C6(CC6)C5)C3)C(=O)C43CCN(C4COC4)CC3)nc(Nc3ccncc3F)c21 (some centres unmarked) [Example 49]	0.5
